Legend:
Assay in all cases: NCI-60 anticancer screen (SRB; single dose and five doses)
SF-539 = settings: Homo sapiens
BT-549 = settings: Homo sapiens
SN12C = settings: Homo sapiens
DU-145 = settings: Homo sapiens
RPMI-8226 = settings: Homo sapiens
A498 = settings: Homo sapiens
M14 = settings: Homo sapiens
SF-295 = settings: Homo sapiens
SK-MEL-28 = settings: Homo sapiens
SF-268 = settings: Homo sapiens
SNB-75 = test system: SNB-75
UACC-62 = settings: Homo sapiens
HS 578T = settings: Homo sapiens
SR = settings: Homo sapiens
SW-620 = settings: Homo sapiens
NCI-H460 = settings: Homo sapiens
EKVX = settings: Homo sapiens
ACHN = settings: Homo sapiens
PC-3 = settings: Homo sapiens
MDA-MB-231/ATCC = settings: Homo sapiens
HOP-62 = settings: Homo sapiens
NCI-H322M = settings: Homo sapiens
MDA-MB-468 = type: cell-based, human
Experimental: The methodology of the NCI anticancer screening has been described in detail elsewhere (http://www.dtp.nci.nih.gov). For detailed information, see Appendix A in the Supplementary Materials.
4.2.1. Screening of the anticancer activity against a panel of 60 cell Lines.
The methodology of the NCI anticancer screening has been described in detail elsewhere (http://www.dtp.nci.nih.gov.) Briefly, the primary anticancer assay was performed at approximately 60 human tumor cell lines panel derived from nine neoplastic diseases, in accordance with the protocol of the Drug Evaluation Branch, National Cancer Institute, Bethesda. Tested compounds were added to the culture at a single concentration (10μM) and the cultures were incubated for 48 h. End -point determinations were made with a protein binding dye, SRB. Results for each tested compound was reported as the percent of growth of the treated cells when compared to the untreated control cells. The percentage growth was evaluated spectrophotometrically versus controls not treated with test agents. […]

CAKI-1 = settings: Homo sapiens
HOP-92 = settings: Homo sapiens
[1] = 48 h, read-out: Growth Percentage

Cc1[nH]c(=S)sc1C(=O)/C=C/c1cccc(Cl)c1 [2e, (E)-3-(3-Chlorophenyl)-1-(4-Methyl-2-Thioxo-2,3-Dihydrothiazol-5-yl)Prop-2-En-1-One]
GI50 (SF-539; SF-539): 2 µM | IC50 (SF-539; SF-539): 3.63 µM | activity at 10 µM (SF-539; SF-539, 48 h, read-out: Growth Percentage): -10.7% | IC (TGI) (SF-539; SF-539, read-out: TGI): 4.07 µM | GI50 (BT-549; BT-549): 2.24 µM | IC50 (BT-549; BT-549): 5.89 µM | activity at 10 µM (BT-549; BT-549, 48 h, read-out: Growth Percentage): 2.28% | IC (TGI) (BT-549; BT-549, read-out: TGI): 6.17 µM | GI50 (SN12C): 2 µM | IC50 (SN12C): 3.55 µM | activity at 10 µM (SN12C; [1]): 12% | CC50 (SN12C; read-out: LC50): 8.91 µM | IC (TGI) (SN12C; read-out: TGI): 4.27 µM | GI50 (DU-145; DU-145): 3.24 µM | IC50 (DU-145; DU-145): 4.79 µM | activity at 10 µM (DU-145; DU-145, 48 h, read-out: Growth Percentage): 16.1% | CC50 (DU-145; DU-145, read-out: LC50): 42.7 µM | IC (TGI) (DU-145; DU-145, read-out: TGI): 11.5 µM | GI50 (RPMI-8226; RPMI-8226): 2.04 µM | IC50 (RPMI-8226; RPMI-8226): 3.72 µM | activity at 10 µM (RPMI-8226; RPMI-8226, 48 h, read-out: Growth Percentage): 10.4% | CC50 (RPMI-8226; RPMI-8226, read-out: LC50): > 100 µM | IC (TGI) (RPMI-8226; RPMI-8226, read-out: TGI): 5.5 µM | GI50 (A498; A498): 19.5 µM | IC50 (A498; A498): 47.9 µM | activity at 10 µM (A498; A498, 48 h, read-out: Growth Percentage, A498, dose of 10 μM): 98% | CC50 (A498; A498, read-out: LC50): 91.2 µM | IC (TGI) (A498; A498, read-out: TGI): 42.7 µM | GI50 (M14; M14): 2.88 µM | IC50 (M14; M14): 4.17 µM | activity at 10 µM (M14; M14, 48 h, read-out: Growth Percentage): 40.2% | IC (TGI) (M14; M14, read-out: TGI): 9.55 µM | GI50 (SF-295; SF-295): 4.37 µM | IC50 (SF-295; SF-295): 11.5 µM | activity at 10 µM (SF-295; SF-295, 48 h, read-out: Growth Percentage): 41.8% | CC50 (SF-295; SF-295, read-out: LC50): 43.6 µM | IC (TGI) (SF-295; SF-295, read-out: TGI): 17 µM | GI50 (SK-MEL-28; SK-MEL-28): 2.14 µM | IC50 (SK-MEL-28; SK-MEL-28): 4.07 µM | activity at 10 µM (SK-MEL-28; SK-MEL-28, 48 h, read-out: Growth Percentage): 44.7% | CC50 (SK-MEL-28; SK-MEL-28, read-out: LC50): 13.5 µM | IC (TGI) (SK-MEL-28; SK-MEL-28, read-out: TGI): 4.9 µM | GI50 (SF-268; SF-268): 3.72 µM | IC50 (SF-268; SF-268): 7.59 µM | activity at 10 µM (SF-268; SF-268, 48 h, read-out: Growth Percentage): 51.8% | CC50 (SF-268; SF-268, read-out: LC50): 97.7 µM | IC (TGI) (SF-268; SF-268, read-out: TGI): 17 µM | GI50 (SNB-75; Homo sapiens, SNB-75): 1.66 µM | IC50 (SNB-75; Homo sapiens, SNB-75): 3.8 µM | activity at 10 µM (SNB-75; Homo sapiens, SNB-75, 48 h, read-out: Growth Percentage): 8.74% | TGI (SNB-75; five-dose, CNS Cancer SNB-75): 3.63 µM | GI50 (UACC-62; UACC-62): 2.34 µM | IC50 (UACC-62; UACC-62): 4.17 µM | activity at 10 µM (UACC-62; UACC-62, 48 h, read-out: Growth Percentage): 30% | IC (TGI) (UACC-62; UACC-62, read-out: TGI): 8.71 µM | GI50 (HS 578T): 3.09 µM | IC50 (HS 578T): > 100 µM | activity at 10 µM (HS 578T; [1]): 47.2% | CC50 (HS 578T; read-out: LC50): > 100 µM | IC (TGI) (HS 578T; read-out: TGI): 85.1 µM | GI50 (SR): 2.63 µM | IC50 (SR): 3.89 µM | activity at 10 µM (SR; [1]): 3.42% | CC50 (SR; read-out: LC50): > 100 µM | IC (TGI) (SR; read-out: TGI): > 100 µM | GI50 (SW-620; SW-620): 1.91 µM | IC50 (SW-620; SW-620): 3.16 µM | activity at 10 µM (SW-620; SW-620, 48 h, read-out: Growth Percentage): 8.6% | CC50 (SW-620; SW-620, read-out: LC50): 7.59 µM | IC (TGI) (SW-620; SW-620, read-out: TGI): 3.8 µM | GI50 (NCI-H460; NCI-H460): 2.75 µM | IC50 (NCI-H460; NCI-H460): 3.55 µM | activity at 10 µM (NCI-H460; NCI-H460, 48 h, read-out: Growth Percentage): 12.1% | CC50 (NCI-H460; NCI-H460, read-out: LC50): 45.7 µM | IC (TGI) (NCI-H460; NCI-H460, read-out: TGI): 7.59 µM | GI50 (EKVX): 10.5 µM | IC50 (EKVX): 24 µM | activity at 10 µM (EKVX; [1]): 34.7% | CC50 (EKVX; read-out: LC50): 95.5 µM | IC (TGI) (EKVX; read-out: TGI): 31.6 µM | GI50 (ACHN): 2.29 µM | IC50 (ACHN): 3.72 µM | activity at 10 µM (ACHN; [1]): 22.9% | CC50 (ACHN; read-out: LC50): 21.4 µM | IC (TGI) (ACHN; read-out: TGI): 6.03 µM | GI50 (PC-3; PC-3): 2.88 µM | IC50 (PC-3; PC-3): 4.9 µM | activity at 10 µM (PC-3; PC-3, 48 h, read-out: Growth Percentage): 31.8% | CC50 (PC-3; PC-3, read-out: LC50): > 100 µM | IC (TGI) (PC-3; PC-3, read-out: TGI): 13.8 µM | GI50 (MDA-MB-231/ATCC; MDA-MB-231): 2.45 µM | IC50 (MDA-MB-231/ATCC; MDA-MB-231): 6.17 µM | activity at 10 µM (MDA-MB-231/ATCC; MDA-MB-231, 48 h, read-out: Growth Percentage): -0.43% | CC50 (MDA-MB-231/ATCC; MDA-MB-231, read-out: LC50): 39.8 µM | IC (TGI) (MDA-MB-231/ATCC; MDA-MB-231, read-out: TGI): 6.92 µM | GI50 (HOP-62; HOP-62): 2.57 µM | IC50 (HOP-62; HOP-62): 4.68 µM | activity at 10 µM (HOP-62; HOP-62, 48 h, read-out: Growth Percentage): 10.4% | CC50 (HOP-62; HOP-62, read-out: LC50): 74.1 µM | IC (TGI) (HOP-62; HOP-62, read-out: TGI): 6.31 µM | GI50 (NCI-H322M): 6.03 µM | IC50 (NCI-H322M): 16.2 µM | activity at 10 µM (NCI-H322M; [1]): 50.1% | CC50 (NCI-H322M; read-out: LC50): 85.1 µM | IC (TGI) (NCI-H322M; read-out: TGI): 26.3 µM | activity at 10 µM (MDA-MB-468; Homo sapiens, 48 h, MDA-MB-468, dose of 10 μM, read-out: Growth Percentage): -7.12% | IC50 (MDA-MB-468; Homo sapiens, MDA-MB-468, MDA-MB-468, Breast Cancer, five dose): 12.6 µM | GI50 (MDA-MB-468; Homo sapiens, MDA-MB-468, Breast Cancer, five dose): 3.8 µM | CC50 (MDA-MB-468; Homo sapiens, MDA-MB-468, Breast Cancer, five dose, read-out: LC50 (the source's name)): 46.8 µM | TGI (MDA-MB-468; MDA-MB-468, Breast Cancer, five dose): 15.85 µM | GI50 (CAKI-1; CAKI-1): 4.68 µM | IC50 (CAKI-1; CAKI-1): 15.5 µM | activity at 10 µM (CAKI-1; CAKI-1, 48 h, read-out: Growth Percentage): 23.9% | CC50 (CAKI-1; CAKI-1, read-out: LC50): 69.2 µM | IC (TGI) (CAKI-1; CAKI-1, read-out: TGI): 20.9 µM | GI50 (HOP-92; HOP-92): 3.55 µM | IC50 (HOP-92; HOP-92): 79.4 µM | CC50 (HOP-92; HOP-92, read-out: LC50): > 100 µM | IC (TGI) (HOP-92; HOP-92, read-out: TGI): 30.9 µM

— article PMC11435058, “Synthesis of New Thiazole-Privileged Chalcones as Tubulin Polymerization Inhibitors with Potential Anticancer Activities” (Pharmaceuticals, 2024)
